From US20240327334A1, “Covalent Inhibitors As Antiviral Agents” (Enanta Pharmaceuticals, Inc., priority 2022, published 2024)

Columns and labels:
[1] = molecular target: SARS-CoV-2 Papain-like (PLpro) protease (Severe acute respiratory syndrome coronavirus 2, UniProt P0DTD1); assay: SARS-CoV-2 Papain-like (PLpro) protease biochemical enzyme inhibition assay (ubiquitin-fluorophore substrate, Ub-R110); conditions: Ub-R110 substrate; run in duplicate; read-out: PLpro IC50
SARS-CoV-2 replicon = assay: microbe, parasite or virus in culture; format: cell-based; conditions: Severe acute respiratory syndrome coronavirus 2, Huh-7

| SMILES | IC50 [1] | EC50 (SARS-CoV-2 replicon) |
| --- | --- | --- |
| C[C@@H](C#Cc1ccc(C#N)cc1F)NC(=O)C(=O)NCc1ccccc1C(=O)NC1(c2ccc3nn(C)cc3c2)CC1 [Example 98] | < 100 nM | < 1000 nM |
| C[C@@H](C#Cc1ccccc1C#N)NC(=O)C(=O)NCc1ccccc1C(=O)NC1(c2ccc3nn(C)cc3c2)CC1 [Example 99] | < 100 nM | < 1000 nM |
| C[C@@H](C#Cc1c(F)cccc1C#N)NC(=O)C(=O)NCc1ccccc1C(=O)NC1(c2ccc3nn(C)cc3c2)CC1 [Example 100] | < 100 nM | < 1000 nM |
| Cn1cc2cc(C3(NC(=O)c4ccccc4CNC(=O)C(=O)NCC#Cc4ccc(C#N)cc4F)CC3)ccc2n1 [Example 103] | < 100 nM | < 1000 nM |
| Cn1cc2cc(C3(NC(=O)c4ccccc4CNC(=O)C(=O)NCC#Cc4ccccc4C#N)CC3)ccc2n1 [Example 104] | < 100 nM | < 1000 nM |
| C[C@@H](C#Cc1c(F)cc(F)cc1C#N)NC(=O)C(=O)NCc1ccccc1C(=O)NC1(c2ccc3nn(C)cc3c2)CC1 [Example 105] | < 100 nM | < 1000 nM |
| C[C@@H](C#Cc1ccc(C#N)c(F)c1)NC(=O)C(=O)NCc1ccccc1C(=O)NC1(c2ccc3nn(C)cc3c2)CC1 [Example 106] | < 100 nM | < 1000 nM |
| C[C@@H](C#Cc1ccc(C#N)cc1Cl)NC(=O)C(=O)NCc1ccccc1C(=O)NC1(c2ccc3nn(C)cc3c2)CC1 [Example 107] | < 100 nM | < 1000 nM |
| C[C@@H](C#Cc1ccc(C#N)cc1C(F)(F)F)NC(=O)C(=O)NCc1ccccc1C(=O)NC1(c2ccc3nn(C)cc3c2)CC1 [Example 109] | < 100 nM | < 1000 nM |
| N#CN1CC(C(=O)NCc2ccccc2C(=O)NC2(c3cccc4ccccc34)CC2)C1 [Example 114] | < 100 nM | < 1000 nM |
| N#CN1CCC(C(=O)NCc2ccccc2C(=O)NC2(c3cccc4ccccc34)CC2)C1 (stereo not drawn) [Example 115] | < 100 nM | < 1000 nM |
| N#CCNC(=O)C(=O)NCc1ccccc1C(=O)NC1(c2cc(C(=O)NC3CC3)cc3ccccc23)CC1 [Example 117] | < 100 nM | 1000 to 10000 nM |
| N#CCNC(=O)C(=O)NCc1ccccc1C(=O)NC1(c2ccc(F)c3ccccc23)CC1 [Example 121] | < 100 nM | < 1000 nM |
| N#CCNC(=O)C(=O)NCc1ccccc1C(=O)NC1(c2cc(C#N)cc(-c3cccs3)c2)CC1 [Example 127] | < 100 nM | 1000 to 10000 nM |
| C#CCNC(=O)C(=O)NCc1ccccc1C(=O)NC1(c2cc(C#N)cc(-c3cccs3)c2)CC1 [Example 128] | < 100 nM | < 1000 nM |
| N#Cc1cc(-c2cccs2)cc(C2(NC(=O)c3ccccc3CNC(=O)C(=O)NCC#Cc3nccs3)CC2)c1 [Example 129] | < 100 nM | < 1000 nM |
| Cc1nn(C2CC2)c(C)c1-c1cc(Cl)cc(C2(NC(=O)c3ccccc3CNC(=O)C(=O)NCC#N)CC2)c1 [Example 130] | < 100 nM | 1000 to 10000 nM |
| C#CCNC(=O)C(=O)NCc1ccccc1C(=O)NC1(c2cc(Cl)cc(-c3c(C)nn(C4CC4)c3C)c2)CC1 [Example 131] | < 100 nM | < 1000 nM |
| Cc1nn(C2CC2)c(C)c1-c1cc(Cl)cc(C2(NC(=O)c3ccccc3CNC(=O)C(=O)NCC#Cc3nccs3)CC2)c1 [Example 132] | < 100 nM | < 1000 nM |
| N#CCNC(=O)C(=O)NCc1ccccc1C(=O)NC1(c2cc(-c3cnn(C4CC4)c3)cc(C3CC3)c2)CC1 [Example 133] | < 100 nM | 1000 to 10000 nM |
| O=C(NCC#Cc1nccs1)C(=O)NCc1ccccc1C(=O)NC1(c2cc(-c3cnn(C4CC4)c3)cc(C3CC3)c2)CC1 [Example 134] | < 100 nM | < 1000 nM |

| SMILES | IC50 [1] | EC50 (SARS-CoV-2 replicon) |
| --- | --- | --- |
| O=C(NCC#Cc1ccc(F)cn1)C(=O)NCc1ccccc1C(=O)NC1(c2cc(-c3cnn(C4CC4)c3)cc(C3CC3)c2)CC1 [Example 135] | < 100 nM | < 1000 nM |
| O=C(NCC#Cc1nccs1)C(=O)NCc1ccccc1C(=O)NC1(c2cc(F)cc(-c3ccn(C(F)F)n3)c2)CC1 [Example 136] | < 100 nM | < 1000 nM |
| O=C(NCC#Cc1ncco1)C(=O)NCc1ccccc1C(=O)NC1(c2ccc3ccccc3c2)CC1 [Example 137] | < 100 nM | < 1000 nM |
| O=C(NCC#Cc1nccs1)C(=O)NCc1ccccc1C(=O)NC1(c2cc(F)cc(C(=O)N3CCOCC3)c2)CC1 [Example 138] | < 100 nM | < 1000 nM |
| Cc1nn(C2CC2)c(C)c1-c1cc(F)cc(C2(NC(=O)c3ccccc3CNC(=O)C(=O)NCC#Cc3nccs3)CC2)c1 [Example 139] | < 100 nM | < 1000 nM |
| Cc1nn(C(F)F)c(C)c1-c1cc(F)cc(C2(NC(=O)c3ccccc3CNC(=O)C(=O)NCC#Cc3nccs3)CC2)c1 [Example 140] | < 100 nM | < 1000 nM |
| C[C@@H](C#Cc1ncc(F)cn1)NC(=O)C(=O)NCc1ccccc1C(=O)NC1(c2cc(F)cc(-c3cnn(C4CC4)c3)c2)CC1 [Example 144] | < 100 nM | < 1000 nM |
| C[C@@H](C#Cc1ccc(C#N)cc1F)NC(=O)C(=O)NCc1ccccc1C(=O)NC1(c2cc(F)cc(-c3cnn(C4CC4)c3)c2)CC1 [Example 145] | < 100 nM | < 1000 nM |
| CC[C@@H](C#Cc1nccs1)NC(=O)C(=O)NCc1ccccc1C(=O)NC1(c2ccc3nn(C)cc3c2)CC1 [Example 146] | < 100 nM | < 1000 nM |
| Cn1cc2cc(C3(NC(=O)c4ccccc4CNC(=O)C(=O)NCC#Cc4ccc(S(C)(=O)=O)cc4F)CC3)ccc2n1 [Example 147] | < 100 nM | < 1000 nM |
| COc1cc(C2(NC(=O)c3ccccc3CNC(=O)C(=O)N[C@@H](C)C#Cc3ccc(S(C)(=O)=O)cc3F)CC2)cc2cn(C3CC3)nc12 [Example 149] | < 100 nM | < 1000 nM |
| O=C(NC/C=C1\CCOC1=O)C(=O)NCc1ccccc1C(=O)NC1(c2cc(Br)cc3ccccc23)CC1 [Example 151] | < 100 nM | < 1000 nM |
| N#C/C=C/CNC(=O)C(=O)NCc1ccccc1C(=O)NC1(c2cc(Br)cc3ccccc23)CC1 [Example 152] | < 100 nM | < 1000 nM |
| O=C(NC/C=C1\CCOC1=O)C(=O)NCc1ccccc1C(=O)NC1(c2cccc3ccccc23)CC1 [Example 153] | < 100 nM | < 1000 nM |
| O=C(NCC#CBr)C(=O)NCc1ccccc1C(=O)NC1(c2cc(Br)cc3ccccc23)CC1 [Example 154] | < 100 nM | < 1000 nM |
| CS(=O)(=O)/C=C/CNC(=O)C(=O)NCc1ccccc1C(=O)NC1(c2cccc3ccccc23)CC1 [Example 155] | < 100 nM | < 1000 nM |
| C#C[C@H](C)NC(=O)C(=O)NCc1ccccc1C(=O)NC1(c2cccc3ccccc23)CC1 [Example 156] | < 100 nM | < 1000 nM |
| O=C(NCC#Cc1cncnc1)C(=O)NCc1ccccc1C(=O)NC1(c2cccc3ccccc23)CC1 [Example 158] | < 100 nM | < 1000 nM |
| O=C(NCC#Cc1cscn1)C(=O)NCc1ccccc1C(=O)NC1(c2cccc3ccccc23)CC1 [Example 159] | < 100 nM | < 1000 nM |
| O=C(NCC#Cc1nccs1)C(=O)NCc1ccccc1C(=O)NC1(c2cccc3ccccc23)CC1 [Example 160] | < 100 nM | < 1000 nM |
| CS(=O)(=O)/C=C/CNC(=O)C(=O)NCc1ccccc1C(=O)NC1(c2ccc3ccccc3c2)CC1 [Example 161] | < 100 nM | < 1000 nM |
